For 33 compounds, IC50 results are on record in patent US10239843B2 (CANCER RESEARCH TECHNOLOGY LIMITED, priority 2014, dated 2019).

The structures appear in SMILES notation. Like-named read-outs stand apart in the source and are kept apart here.

The target in one assay is Human Full Length PARG (Homo sapiens (Human), UniProt Q86W56). Description: PARG enzyme assay (TR-FRET). The class given is biochemical. Background: Time-resolved FRET reads energy transfer from a long-lived donor to a nearby acceptor.
Sequence of Human Full Length PARG (Q86W56 whole entry): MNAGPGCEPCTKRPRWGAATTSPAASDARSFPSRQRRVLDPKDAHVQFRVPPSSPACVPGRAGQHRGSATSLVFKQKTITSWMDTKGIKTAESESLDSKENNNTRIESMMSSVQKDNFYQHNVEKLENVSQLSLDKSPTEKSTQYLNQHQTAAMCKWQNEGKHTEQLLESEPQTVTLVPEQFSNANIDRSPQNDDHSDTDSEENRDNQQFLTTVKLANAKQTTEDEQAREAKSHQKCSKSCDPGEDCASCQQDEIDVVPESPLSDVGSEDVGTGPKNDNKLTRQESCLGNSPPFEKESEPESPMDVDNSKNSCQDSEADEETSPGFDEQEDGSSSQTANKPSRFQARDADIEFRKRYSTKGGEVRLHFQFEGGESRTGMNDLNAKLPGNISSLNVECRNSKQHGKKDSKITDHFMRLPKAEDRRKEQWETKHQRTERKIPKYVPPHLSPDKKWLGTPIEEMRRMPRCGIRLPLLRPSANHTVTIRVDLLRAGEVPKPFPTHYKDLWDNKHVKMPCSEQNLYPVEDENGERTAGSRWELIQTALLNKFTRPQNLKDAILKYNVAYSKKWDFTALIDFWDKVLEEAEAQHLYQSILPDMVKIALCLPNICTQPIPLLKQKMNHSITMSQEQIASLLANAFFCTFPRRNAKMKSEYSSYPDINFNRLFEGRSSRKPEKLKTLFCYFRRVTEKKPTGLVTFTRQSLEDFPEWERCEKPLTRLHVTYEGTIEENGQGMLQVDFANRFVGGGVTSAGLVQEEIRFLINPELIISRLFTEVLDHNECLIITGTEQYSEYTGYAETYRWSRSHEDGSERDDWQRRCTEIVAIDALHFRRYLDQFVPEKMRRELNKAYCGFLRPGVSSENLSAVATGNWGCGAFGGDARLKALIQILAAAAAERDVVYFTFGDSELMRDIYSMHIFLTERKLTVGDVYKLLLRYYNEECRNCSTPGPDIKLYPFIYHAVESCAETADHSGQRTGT
The next assay relates to PARG in HeLa cell line. Description: PARG cell assay (PAR chain immunofluorescence after MMS). In kind it is cell-based. Conditions: HeLa cells. The method, boiled down: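 Nuclear poly(ADP-ribose) chains in HeLa cells are read by indirect immunofluorescence with a mouse anti-PAR antibody applied overnight at 4° C after fixing and permeabilising. Cells get 1 h of compound, then 50 μg/mL MMS (final) for another hour. PAR persisting at that point reflects PARG inhibition.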

[1] abbreviates: read-out: PARG Biochem IC50 Geomean.
The mark [2] stands for this setting: Homo sapiens, MMS 50 μg/mL, read-out: PARG Cell IC50 Geomean.
The mark [3] stands for this setting: Homo sapiens, MMS treatment, read-out: PARG Cell IC50.
[4] abbreviates: MMS treatment, read-out: PARG Cell IC50.
Setting [5] is: MMS 50 μg/mL, read-out: PARG Cell IC50 Geomean.

The term IC50 denotes the concentration that gives 50% inhibition.

In the case of `CC1CC1Cn1c(=O)n(C)c(=O)c2cc(S(=O)(=O)NC3(C)CC3)ccc21` (stereo not drawn) [Example 35], the IC50 is 246 nM at Human Full Length PARG (setting [1]) and 409 nM in the assay with PARG in HeLa cell line (setting [2]).
`CN(C)CCCn1c(=O)n(Cc2cnn(C)c2)c(=O)c2cc(S(=O)(=O)NC3(C)CC3)ccc21` [Example 237]: the IC50 at Human Full Length PARG (setting [1]) was determined as 232 nM; with PARG in HeLa cell line (setting [2]) it was 285 nM.
For the compound `CCCn1c(=O)n(Cc2cc(C)no2)c(=O)c2cc(S(=O)(=O)NC3(CF)CC3)ccc21` [Example 535, N-[1-(Fluoromethyl)cyclopropyl]-3-[(3-methylisoxazol-5-yl)methyl]-2,4-dioxo-1-propyl-quinazoline-6-sulfonamide], the IC50 was 191 nM on Human Full Length PARG (read-out: PARG Biochem IC50) and 147 nM in the assay on PARG in HeLa cell line (setting [3]).
As for `Cc1cc(Cn2c(=O)c3cc(S(=O)(=O)NC4(C)CC4)ccc3n(CC3CC(F)(F)C3)c2=O)on1` [Example 363], the IC50 on Human Full Length PARG (setting [1]) was found to be 353 nM; in the assay on PARG in HeLa cell line (setting [2]) it was 382 nM.
The matching figures for `CCn1cc(Cn2c(=O)c3cc(S(=O)(=O)NC4(C)CC4)ccc3n(C)c2=O)cn1` [Example 181]: 447 nM and 680 nM.
Regarding `Cc1cc(Cn2c(=O)c3cc(S(=O)(=O)NC4(C)CC4)ccc3n(CC3CCC(=O)CC3)c2=O)on1` [Example 421, N-(1-Methylcyclopropyl)-3-[(3-methylisoxazol-5-yl)methyl]-2,4-dioxo-1-[(4-oxocyclohexyl)methyl]quinazoline-6-sulfonamide], the IC50 is 193 nM on Human Full Length PARG (read-out: PARG Biochem IC50) and 589 nM with PARG in HeLa cell line (setting [4]).
Consider `COc1cccc(Cn2c(=O)n(CC#N)c(=O)c3cc(S(=O)(=O)NC4(C)CC4)ccc32)c1` [Example 187], for which the values for the IC50 at Human Full Length PARG (setting [1]) and in the assay on PARG in HeLa cell line (setting [2]) were 467 nM and 343 nM, respectively.
As to `Cc1n[nH]c(Cn2c(=O)n(Cc3cnn(C)c3)c(=O)c3cc(S(=O)(=O)NC4(CF)CC4)ccc32)n1` [Example 592, N-[1-(Fluoromethyl)cyclopropyl]-3-[(1-methylpyrazol-4-yl)methyl]-1-[(3-methyl-1H-1,2,4-triazol-5-yl)methyl]-2,4-dioxo-quinazoline-6-sulfonamide], the IC50 on Human Full Length PARG (read-out: PARG Biochem IC50) is 300 nM; in the assay with PARG in HeLa cell line (setting [3]), 11400 nM.
Take `Cn1cc(Cn2c(=O)c3cc(S(=O)(=O)NC4(CF)CC4)ccc3n(CC3CC(F)(F)C3)c2=O)cn1` [Example 444, 1-[(3,3-Difluorocyclobutyl)methyl]-N-[1-(fluoromethyl)cyclopropyl]-3-[(1-methylpyrazol-4-yl)methyl]-2,4-dioxo-quinazoline-6-sulfonamide]: the figures for the IC50 on Human Full Length PARG (read-out: PARG Biochem IC50) and with PARG in HeLa cell line (setting [4]) were 63 nM and 90 nM, respectively.
On to `Cc1ncc(Cn2c(=O)[nH]c3ccc(S(=O)(=O)NC4(C)CC4)cc3c2=O)s1` [Example 220, N-(1-Methylcyclopropyl)-3-[(2-methylthiazol-5-yl)methyl]-2,4-dioxo-1H-quinazoline-6-sulfonamide], for which the concentration for half-maximal inhibition (IC50) on Human Full Length PARG (setting [1]) came to 273 nM; in the assay with PARG in HeLa cell line (setting [2]), 481 nM.
With `Cn1cc(Cn2c(=O)c3cc(S(=O)(=O)NC4(CF)CC4)ccc3n(Cc3nc[nH]n3)c2=O)cn1` [Example 587, N-[1-(Fluoromethyl)cyclopropyl]-3-[(1-methylpyrazol-4-yl)methyl]-2,4-dioxo-1-(1H-1,2,4-triazol-3-ylmethyl)quinazoline-6-sulfonamide], the IC50 is 207 nM at Human Full Length PARG (read-out: PARG Biochem IC50) and 7980 nM with PARG in HeLa cell line (setting [3]).
`CCOC(=O)Cn1c(=O)n(Cc2cc(C)no2)c(=O)c2cc(S(=O)(=O)NC3(C)CC3)ccc21` [Example 332]: the IC50 amounted to 356 nM at Human Full Length PARG (setting [1]) and 462 nM in the assay on PARG in HeLa cell line (setting [2]).
For `Cn1cc(Cn2c(=O)c3cc(S(=O)(=O)NC4(C)CC4)c(F)cc3n(Cc3cnn(C)c3)c2=O)cn1` [Example 393, 7-Fluoro-N-(1-methylcyclopropyl)-1,3-bis[(1-methylpyrazol-4-yl)methyl]-2,4-dioxo-quinazoline-6-sulfonamide], the IC50 at Human Full Length PARG (setting [1]) worked out at 28 nM; in the assay with PARG in HeLa cell line (setting [5]), 84 nM.
With `Cc1ncc(Cn2c(=O)c3cc(S(=O)(=O)NC4(C)CC4)ccc3n(Cc3cc(C(F)(F)F)nn3C)c2=O)s1` [Example 231], the values for the IC50 on Human Full Length PARG (setting [1]) and in the assay with PARG in HeLa cell line (setting [2]) were 55 nM and 47 nM, respectively.
Take `Cc1cc(Cn2c(=O)c3cc(S(=O)(=O)NC4(CF)CC4)ccc3n(Cc3noc(C)n3)c2=O)on1` [Example 558, N-[1-(Fluoromethyl)cyclopropyl]-3-[(3-methylisoxazol-5-yl)methyl]-1-[(5-methyl-1,2,4-oxadiazol-3-yl)methyl]-2,4-dioxo-quinazoline-6-sulfonamide]: the IC50 on Human Full Length PARG (read-out: PARG Biochem IC50) came out at 207 nM; in the assay with PARG in HeLa cell line (setting [3]), 177 nM.
Regarding `Cc1cc(Cn2c(=O)c3cc(S(=O)(=O)NC4(C)CC4)ccc3n(CCN(C)C)c2=O)on1` [Example 246], the values for the IC50 at Human Full Length PARG (setting [1]) and with PARG in HeLa cell line (setting [2]) were 469 nM and 431 nM, respectively.
On the same counts, the results for `Cc1ncc(Cn2c(=O)c3cc(S(=O)(=O)NC4(C)CC4)ccc3n(Cc3ccc(F)cc3)c2=O)s1` [Example 176] are 89 nM and 85 nM.
Consider `Cc1cc(Cn2nc(C3CC3)c3ccc(S(=O)(=O)NC4(C)CC4)cc3c2=O)on1` [Example 313], for which the figures for the IC50 at Human Full Length PARG (setting [1]) and in the assay with PARG in HeLa cell line (setting [5]) were 349 nM and 420 nM, respectively.
Regarding `Cn1cc(Cn2c(=O)c3cc(S(=O)(=O)NC4(CF)CC4)ccc3n(Cc3cncs3)c2=O)cn1` [Example 563, N-[1-(Fluoromethyl)cyclopropyl]-3-[(1-methylpyrazol-4-yl)methyl]-2,4-dioxo-1-(thiazol-5-ylmethyl)quinazoline-6-sulfonamide], the IC50 stood at 8 nM on Human Full Length PARG (read-out: PARG Biochem IC50) and 66 nM in the assay with PARG in HeLa cell line (setting [3]).
For `CC(=O)Cn1c(=O)n(Cc2cnn(C)c2)c(=O)c2cc(S(=O)(=O)NC3(C)CC3)ccc21` [Example 367], the IC50 at Human Full Length PARG (setting [1]) came out at 353 nM; with PARG in HeLa cell line (setting [5]), 340 nM.
Turning to `Cc1cnc(Cn2c(=O)n(Cc3cnn(C)c3)c(=O)c3cc(S(=O)(=O)NC4(CF)CC4)ccc32)cn1` [Example 569, N-[1-(Fluoromethyl)cyclopropyl]-1-[(5-methylpyrazin-2-yl)methyl]-3-[(1-methylpyrazol-4-yl)methyl]-2,4-dioxo-quinazoline-6-sulfonamide], the IC50 worked out at 130 nM on Human Full Length PARG (read-out: PARG Biochem IC50) and 128 nM in the assay with PARG in HeLa cell line (setting [3]).
Regarding `COC(=O)c1cc(S(=O)(=O)NC2(C)CC2)cc2c(=O)n(Cc3cnn(C)c3)c(=O)[nH]c12` [Example 448, Methyl 6-[(1-methylcyclopropyl)sulfamoyl]-3-[(1-methylpyrazol-4-yl)methyl]-2,4-dioxo-1H-quinazoline-8-carboxylate], the IC50 on Human Full Length PARG (read-out: PARG Biochem IC50) came out at 424 nM; with PARG in HeLa cell line (setting [4]), 329 nM.
On to `Cn1cc(Cn2c(=O)c3cc(S(=O)(=O)NC4(CF)CC4)ccc3n(Cc3cocn3)c2=O)cn1` [Example 607, N-[1-(Fluoromethyl)cyclopropyl]-3-[(1-methylpyrazol-4-yl)methyl]-1-(oxazol-4-ylmethyl)-2,4-dioxo-quinazoline-6-sulfonamide], for which the values for the IC50 on Human Full Length PARG (read-out: PARG Biochem IC50) and with PARG in HeLa cell line (setting [3]) were 63 nM and 76 nM, respectively.
For `CN(C)C(=O)c1cc(S(=O)(=O)NC2(C)CC2)cc2c(=O)n(Cc3cnn(C)c3)c(=O)[nH]c12` [Example 449, N,N-Dimethyl-6-[(1-methylcyclopropyl)sulfamoyl]-3-[(1-methylpyrazol-4-yl)methyl]-2,4-dioxo-1H-quinazoline-8-carboxamide], the IC50 at Human Full Length PARG (read-out: PARG Biochem IC50) came to 5780 nM; in the assay on PARG in HeLa cell line (setting [3]), 13200 nM.
In the case of `Cn1cc(Cn2c(=O)[nH]c3ccc(S(=O)(=O)NC4(C(F)F)CC4)cc3c2=O)cn1` [Example 456, N-[1-(Difluoromethyl)cyclopropyl]-3-[(1-methylpyrazol-4-yl)methyl]-2,4-dioxo-1H-quinazoline-6-sulfonamide], the IC50 at Human Full Length PARG (read-out: PARG Biochem IC50) is 4110 nM; in the assay on PARG in HeLa cell line (setting [4]), 5600 nM.
As for `Cn1c(=O)n(Cc2cnsc2)c(=O)c2cc(S(=O)(=O)NC3(CF)CC3)ccc21` [Example 494, N-[1-(Fluoromethyl)cyclopropyl]-3-(isothiazol-4-ylmethyl)-1-methyl-2,4-dioxo-quinazoline-6-sulfonamide], the IC50 at Human Full Length PARG (read-out: PARG Biochem IC50) was determined as 1260 nM; with PARG in HeLa cell line (setting [3]) it was 1100 nM.
As for `Cc1cc(Cn2c(=O)c3cc(S(=O)(=O)NC4(C)CC4)ccc3n(CC3CCSCC3)c2=O)on1` [Example 381], the IC50 on Human Full Length PARG (setting [1]) came to 126 nM; with PARG in HeLa cell line (setting [2]), 208 nM.
For `COCCCn1c(=O)n(Cc2cnn(C)c2)c(=O)c2cc(S(=O)(=O)NC3(C)CC3)ccc21` [Example 239], the IC50 on Human Full Length PARG (setting [1]) is 209 nM; in the assay on PARG in HeLa cell line (setting [5]), 127 nM.
In the case of `Cn1cc(Cn2c(=O)c3cc(S(=O)(=O)NC4(CF)CC4)ccc3n(Cc3cccc(C#N)n3)c2=O)cn1` [Example 538, 1-[(6-Cyano-2-pyridyl)methyl]-N-[1-(fluoromethyl)cyclopropyl]-3-[(1-methylpyrazol-4-yl)methyl]-2,4-dioxo-quinazoline-6-sulfonamide], the values for the IC50 on Human Full Length PARG (read-out: PARG Biochem IC50) and in the assay with PARG in HeLa cell line (setting [4]) were 162 nM and 393 nM, respectively.
For the compound `Cn1cc(Cn2c(=O)c3cc(S(=O)(=O)NC4(C)CC4)ccc3n(CC3CCC3)c2=O)cn1` [Example 281], the figures for the IC50 on Human Full Length PARG (setting [1]) and in the assay with PARG in HeLa cell line (setting [2]) were 76 nM and 44 nM, respectively.
For `CCn1c(=O)n(Cc2cnc(C)s2)c(=O)c2cc(S(=O)(=O)NC3(C#N)CC3)ccc21` [Example 455, N-(1-Cyanocyclopropyl)-1-ethyl-3-[(2-methylthiazol-5-yl)methyl]-2,4-dioxo-quinazoline-6-sulfonamide], the concentration for half-maximal inhibition (IC50) was 177 nM at Human Full Length PARG (read-out: PARG Biochem IC50) and 283 nM with PARG in HeLa cell line (setting [3]).
Consider `Cc1cc(Cn2c(=O)n(Cc3cnn(C)c3)c(=O)c3cc(S(=O)(=O)NC4(C)CC4)c(F)cc32)n(C)n1` [Example 392, 1-[(2,5-Dimethylpyrazol-3-yl)methyl]-7-fluoro-N-(1-methylcyclopropyl)-3-[(1-methylpyrazol-4-yl)methyl]-2,4-dioxo-quinazoline-6-sulfonamide], for which the IC50 was determined as 47 nM on Human Full Length PARG (setting [1]) and 113 nM in the assay with PARG in HeLa cell line (setting [2]).
For `Cn1nc(C(C)(C)C)cc1Cn1c(=O)n(C)c(=O)c2cc(S(=O)(=O)NC3(C)CC3)ccc21` [Example 149], the results for the IC50 at Human Full Length PARG (setting [1]) and in the assay on PARG in HeLa cell line (setting [2]) were 293 nM and 518 nM, respectively.
